In the NIST ThermoML archive (doi:10.1016/j.jct.2016.06.034):

Test: mn = molality of the nth substance listed, in mol/kg
Conditions: for electrical conductivity / speed of sound / mass density: 84.5 kPa, Liquid; for electrical conductivity: Alternating current cell with electrodes; for speed of sound: Frequency=3 MHz, Sing-around technique in a fixed-path interferometer; for mass density: Vibrating tube method; for surface tension liquid-gas: platinum plate method

CCCCCCCCCCn1cc[n+](C)c1.[Br-] [1-decyl-3-methylimidazolium bromide] + O
Conditions	electrical conductivity [S/m]	mass density [kg/m3]	speed of sound [m/s]	surface tension liquid-gas [mN/m]
298.15 K, m1 = 0.0095	–	997.416	1498.6	–
298.15 K, m1 = 0.01379	–	997.587	1499.5	–
298.15 K, m1 = 0.01652	–	997.693	1500	–
298.15 K, m1 = 0.02179	–	997.899	1500.9	–
298.15 K, m1 = 0.02615	–	998.07	1501.7	–
298.15 K, m1 = 0.03106	–	998.263	1502.5	–
298.15 K, m1 = 0.03338	–	998.353	1502.9	–
298.15 K, m1 = 0.03397	0.283	–	–	–
298.15 K, m1 = 0.03638	0.3	–	–	–
298.15 K, m1 = 0.03819	–	998.54	1503.7	–
298.15 K, m1 = 0.03875	0.317	–	–	–
298.15 K, m1 = 0.04039	0.327	–	–	–
298.15 K, m1 = 0.0406	–	998.636	1503.9	–
298.15 K, m1 = 0.04217	0.338	–	–	–
298.15 K, m1 = 0.04332	–	998.732	1504.2	–
298.15 K, m1 = 0.04391	0.346	–	–	–
298.15 K, m1 = 0.04608	0.354	–	–	–
298.15 K, m1 = 0.04614	–	998.829	1504.4	–
298.15 K, m1 = 0.04825	0.361	–	–	–
298.15 K, m1 = 0.05051	0.368	–	–	–
298.15 K, m1 = 0.0526	0.373	–	–	–
298.15 K, m1 = 0.05487	0.379	–	–	–
298.15 K, m1 = 0.05515	–	999.136	1504.7	–
298.15 K, m1 = 0.05749	0.386	–	–	–
298.15 K, m1 = 0.06017	0.392	–	–	–
298.15 K, m1 = 0.06271	0.398	–	–	–
298.15 K, m1 = 0.06396	–	999.429	1504.8	–
298.15 K, m1 = 0.07815	–	999.895	1504.9	–
298.15 K, m1 = 0.122	–	1001.31	1505.1	–
298.15 K, m1 = 0.1726	–	1002.91	1505.4	–
298.15 K, m1 = 0.2247	–	1004.51	1505.7	–
298.15 K, m1 = 0.2539	–	1005.39	1505.9	–
303.15 K, m1 = 1e-05	0.00018	–	–	–
303.15 K, m1 = 3e-05	0.000342	–	–	–
303.15 K, m1 = 4e-05	0.000511	–	–	–
303.15 K, m1 = 5e-05	0.000676	–	–	–
303.15 K, m1 = 7e-05	0.000835	–	–	–
303.15 K, m1 = 8e-05	0.001	–	–	–
303.15 K, m1 = 0.00015	0.00183	–	–	–
303.15 K, m1 = 0.00023	0.00267	–	–	–
303.15 K, m1 = 0.00038	0.00443	–	–	–
303.15 K, m1 = 0.00053	0.00608	–	–	–
303.15 K, m1 = 0.00082	0.00939	–	–	–
303.15 K, m1 = 0.00142	0.016	–	–	–
303.15 K, m1 = 0.0023	0.0256	–	–	–
303.15 K, m1 = 0.00351	0.0384	–	–	–
303.15 K, m1 = 0.00463	0.0502	–	–	–
303.15 K, m1 = 0.00617	0.0665	–	–	–
303.15 K, m1 = 0.00896	0.0945	–	–	–
303.15 K, m1 = 0.0095	–	996.005	1510.8	–
303.15 K, m1 = 0.01168	0.121	–	–	–
303.15 K, m1 = 0.01379	–	996.169	1511.6	–
303.15 K, m1 = 0.01458	0.148	–	–	–
303.15 K, m1 = 0.01652	–	996.273	1512	–
303.15 K, m1 = 0.01746	0.175	–	–	–
303.15 K, m1 = 0.01986	0.197	–	–	–
303.15 K, m1 = 0.02179	–	996.475	1512.8	–
303.15 K, m1 = 0.02235	0.218	–	–	–
303.15 K, m1 = 0.0248	0.24	–	–	–
303.15 K, m1 = 0.02615	–	996.639	1513.5	–
303.15 K, m1 = 0.0272	0.26	–	–	–
303.15 K, m1 = 0.02958	0.28	–	–	–
303.15 K, m1 = 0.03106	–	996.825	1514.3	–
303.15 K, m1 = 0.03192	0.299	–	–	–
303.15 K, m1 = 0.03338	–	996.912	1514.7	–
303.15 K, m1 = 0.03356	0.312	–	–	–
303.15 K, m1 = 0.0353	0.326	–	–	–
303.15 K, m1 = 0.03765	0.345	–	–	–
303.15 K, m1 = 0.03819	–	997.092	1515.4	–
303.15 K, m1 = 0.03995	0.361	–	–	–
303.15 K, m1 = 0.0406	–	997.186	1515.5	–
303.15 K, m1 = 0.04173	0.373	–	–	–
303.15 K, m1 = 0.04332	–	997.276	1515.8	–
303.15 K, m1 = 0.0437	0.385	–	–	–
303.15 K, m1 = 0.04561	0.393	–	–	–
303.15 K, m1 = 0.04614	–	997.377	1516	–
303.15 K, m1 = 0.0476	0.401	–	–	–
303.15 K, m1 = 0.04986	0.409	–	–	–
303.15 K, m1 = 0.05209	0.416	–	–	–
303.15 K, m1 = 0.05436	0.423	–	–	–
303.15 K, m1 = 0.05515	–	997.672	1516.2	–
303.15 K, m1 = 0.05698	0.43	–	–	–
303.15 K, m1 = 0.0591	0.436	–	–	–
303.15 K, m1 = 0.06148	0.443	–	–	–
303.15 K, m1 = 0.06396	–	997.957	1516.2	–
303.15 K, m1 = 0.07815	–	998.413	1516.2	–
303.15 K, m1 = 0.122	–	999.792	1516.1	–
303.15 K, m1 = 0.1726	–	1001.35	1516	–
303.15 K, m1 = 0.2247	–	1002.91	1516	–
303.15 K, m1 = 0.2539	–	1003.77	1515.9	–
308.15 K, m1 = 1e-05	0.000218	–	–	–
308.15 K, m1 = 3e-05	0.000397	–	–	–
308.15 K, m1 = 4e-05	0.000606	–	–	–
308.15 K, m1 = 7e-05	0.000959	–	–	–
308.15 K, m1 = 0.0001	0.00133	–	–	–
308.15 K, m1 = 0.00013	0.00169	–	–	–
308.15 K, m1 = 0.00017	0.00228	–	–	–
308.15 K, m1 = 0.00024	0.0032	–	–	–
308.15 K, m1 = 0.00039	0.0051	–	–	–
308.15 K, m1 = 0.00069	0.00888	–	–	–
308.15 K, m1 = 0.00098	0.0124	–	–	–
308.15 K, m1 = 0.0014	0.0178	–	–	–
308.15 K, m1 = 0.00242	0.0302	–	–	–
308.15 K, m1 = 0.00326	0.0401	–	–	–
308.15 K, m1 = 0.00348	0.0427	–	–	–
308.15 K, m1 = 0.0063	0.0752	–	–	–
308.15 K, m1 = 0.00691	–	–	–	46.2
308.15 K, m1 = 0.00928	0.108	–	–	–
308.15 K, m1 = 0.0095	–	994.377	1521.3	–
308.15 K, m1 = 0.01212	0.139	–	–	–
308.15 K, m1 = 0.01368	–	–	–	40.98
308.15 K, m1 = 0.01379	–	994.536	1522	–
308.15 K, m1 = 0.01499	0.169	–	–	–
308.15 K, m1 = 0.01652	–	994.638	1522.4	–
308.15 K, m1 = 0.01731	0.193	–	–	–
308.15 K, m1 = 0.01851	–	–	–	39.3
308.15 K, m1 = 0.02003	0.22	–	–	–
308.15 K, m1 = 0.02179	–	994.831	1523.2	–
308.15 K, m1 = 0.02313	0.25	–	–	–
308.15 K, m1 = 0.0251	–	–	–	38.12
308.15 K, m1 = 0.02573	0.275	–	–	–
308.15 K, m1 = 0.02615	–	994.993	1523.7	–
308.15 K, m1 = 0.0282	0.298	–	–	–
308.15 K, m1 = 0.03065	0.321	–	–	–
308.15 K, m1 = 0.03094	–	–	–	37.39
308.15 K, m1 = 0.03106	–	995.17	1524.4	–
308.15 K, m1 = 0.03312	0.343	–	–	–
308.15 K, m1 = 0.03338	–	995.253	1524.7	–
308.15 K, m1 = 0.03447	–	–	–	36.95
308.15 K, m1 = 0.03589	0.367	–	–	–
308.15 K, m1 = 0.03819	–	995.428	1525.4	–
308.15 K, m1 = 0.03832	0.388	–	–	–
308.15 K, m1 = 0.04053	0.406	–	–	–
308.15 K, m1 = 0.0406	–	995.52	1525.5	–
308.15 K, m1 = 0.04063	–	–	–	36.49
308.15 K, m1 = 0.04223	0.419	–	–	–
308.15 K, m1 = 0.04332	–	995.61	1525.8	–
308.15 K, m1 = 0.04385	0.429	–	–	–
308.15 K, m1 = 0.04569	0.439	–	–	–
308.15 K, m1 = 0.04614	–	995.708	1526	–
308.15 K, m1 = 0.0479	–	–	–	36.69
308.15 K, m1 = 0.04793	0.449	–	–	–
308.15 K, m1 = 0.04988	0.457	–	–	–
308.15 K, m1 = 0.05063	–	–	–	37.17
308.15 K, m1 = 0.05219	–	–	–	37.66
308.15 K, m1 = 0.05236	0.466	–	–	–
308.15 K, m1 = 0.05506	–	–	–	37.95
308.15 K, m1 = 0.05515	–	995.996	1526.1	–
308.15 K, m1 = 0.05533	0.477	–	–	–
308.15 K, m1 = 0.05718	0.483	–	–	–
308.15 K, m1 = 0.05941	0.492	–	–	–
308.15 K, m1 = 0.06163	0.498	–	–	–
308.15 K, m1 = 0.06382	0.507	–	–	–
308.15 K, m1 = 0.06396	–	996.274	1526.1	–
308.15 K, m1 = 0.07	–	–	–	38.27
308.15 K, m1 = 0.07815	–	996.719	1526	–
308.15 K, m1 = 0.09792	–	–	–	38.41
308.15 K, m1 = 0.122	–	998.067	1525.6	–
308.15 K, m1 = 0.1694	–	–	–	38.44
308.15 K, m1 = 0.1726	–	999.588	1525.1	–
308.15 K, m1 = 0.2247	–	1001.11	1524.7	–
308.15 K, m1 = 0.2268	–	–	–	38.2
308.15 K, m1 = 0.2539	–	1001.95	1524.4	–
